Target: PD-1/PD-L1 (Homo sapiens (Human), UniProt Q9NZQ7)
Experiment: PD-1/PD-L1 binding assay (HTRF)
How it was run: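 HTRF read-out (665/620 nm) after 60 min at 25 °C with 1 nM Eu anti-human IgG and 20 nM APC anti-His. Beforehand, inhibitors were preincubated 40 min with Fc-PD-1 (25-167, […] as listed) and His-PD-L1 (19-238, 10 nM) in PBS pH 7.4 with Tween-20, BSA, 1% DMSO; IC50 from log-concentration curve.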

PD-1/PD-L1, sequence (Q9NZQ7 19-238): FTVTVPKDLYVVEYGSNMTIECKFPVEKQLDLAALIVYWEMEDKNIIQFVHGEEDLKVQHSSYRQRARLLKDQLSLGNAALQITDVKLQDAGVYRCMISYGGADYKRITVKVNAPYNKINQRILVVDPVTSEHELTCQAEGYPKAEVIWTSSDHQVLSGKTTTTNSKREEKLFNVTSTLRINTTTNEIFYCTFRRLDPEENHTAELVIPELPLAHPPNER

Structure (SMILES) | IC50
CC(C)N1CCc2c(nc(C(=O)Nc3cccc(-c4cccc(NC(=O)c5nc6c(n5C)CCN(C[C@H]5CC[C@@H](C(=O)O)CC5)C6)c4Cl)c3Cl)n2C)C1 [Example 72, cis-4-((2-((2,2′-dichloro-3′-(5-isopropyl-1-methyl-4,5,6,7-tetrahydro-1H-imidazo[4,5-c]pyridine-2-carboxamido)-[1,1′-biphenyl]-3-yl)carbamoyl)-1-methyl-1,4,6,7-tetrahydro-5H-imidazo[4,5-c]pyridin-5-yl)methyl)cyclohexane-1-carboxylic acid] | ≤ 10 nM
Cn1c(C(=O)Nc2cccc(-c3cccc(NC(=O)c4nc5c(n4C)CCN(C4CCOCC4)C5)c3Cl)c2Cl)nc2c1CCN(C[C@H]1CC[C@@H](C(=O)O)CC1)C2 [Example 73, cis-4-((2-((2,2′-dichloro-3′-(1-methyl-5-(tetrahydro-2H-pyran-4-yl)-4,5,6,7-tetrahydro-1H-imidazo[4,5-c]pyridine-2-carboxamido)-[1,1′-biphenyl]-3-yl)carbamoyl)-1-methyl-1,4,6,7-tetrahydro-5H-imidazo[4,5-c]pyridin-5-yl)methyl)cyclohexane-1-carboxylic acid] | ≤ 10 nM
C[C@H](O)CN1CCc2c(nc(C(=O)Nc3cccc(-c4cccc(NC(=O)c5nc6c(n5C)CCN(C[C@H]5CC[C@@H](C(=O)O)CC5)C6)c4Cl)c3Cl)n2C)C1 [Example 75, cis-4-((2-((2,2′-dichloro-3′-(5-((S)-2-hydroxypropyl)-1-methyl-4,5,6,7-tetrahydro-1H-imidazo[4,5-c]pyridine-2-carboxamido)-[1,1′-biphenyl]-3-yl)carbamoyl)-1-methyl-1,4,6,7-tetrahydro-5H-imidazo[4,5-c]pyridin-5-yl)methyl)cyclohexane-1-carboxylic acid] | ≤ 10 nM
C[C@@H](O)CN1CCc2c(nc(C(=O)Nc3cccc(-c4cccc(NC(=O)c5nc6c(n5C)CCN(C[C@H]5CC[C@@H](C(=O)O)CC5)C6)c4Cl)c3Cl)n2C)C1 [Example 76, cis-4-((2-((2,2′-dichloro-3′-(5-((R)-2-hydroxypropyl)-1-methyl-4,5,6,7-tetrahydro-1H-imidazo[4,5-c]pyridine-2-carboxamido)-[1,1′-biphenyl]-3-yl)carbamoyl)-1-methyl-1,4,6,7-tetrahydro-5H-imidazo[4,5-c]pyridin-5-yl)methyl)cyclohexane-1-carboxylic acid] | ≤ 10 nM
CN1CCc2c(nc(C(=O)Nc3cccc(-c4cccc(NC(=O)c5nc6c(n5C)CCN(CCc5ccc(C(=O)O)cc5)C6)c4Cl)c3Cl)n2C)C1 [Example 78, 4-(2-(2-((2,2′-dichloro-3′-(1,5-dimethyl-4,5,6,7-tetrahydro-1H-imidazo[4,5-c]pyridine-2-carboxamido)-[1,1′-biphenyl]-3-yl)carbamoyl)-1-methyl-1,4,6,7-tetrahydro-5H-imidazo[4,5-c]pyridin-5-yl)ethyl)benzoic acid] | ≤ 10 nM
CN1CCc2c(nc(C(=O)Nc3cccc(-c4cccc(NC(=O)c5nc6c(n5C)CCN(C5CCC(C)(C(=O)O)CC5)C6)c4Cl)c3Cl)n2C)C1 (stereo not shown) [Example 80, 4-(2-((2,2′-dichloro-3′-(1,5-dimethyl-4,5,6,7-tetrahydro-1H-imidazo[4,5-c]pyridine-2-carboxamido)-[1,1′-biphenyl]-3-yl)carbamoyl)-1-methyl-1,4,6,7-tetrahydro-5H-imidazo[4,5-c]pyridin-5-yl)-1-methylcyclohexane-1-carboxylic acid] | ≤ 10 nM
CN1CCc2c(nc(C(=O)Nc3cccc(-c4cccc(NC(=O)c5nc6c(n5C)CCN(CC57CCC(C(=O)O)(CC5)CC7)C6)c4Cl)c3Cl)n2C)C1 [Example 81, 4-((2-((2,2′-dichloro-3′-(1,5-dimethyl-4,5,6,7-tetrahydro-1H-imidazo[4,5-c]pyridine-2-carboxamido)-[1,1′-biphenyl]-3-yl)carbamoyl)-1-methyl-1,4,6,7-tetrahydro-5H-imidazo[4,5-c]pyridin-5-yl)methyl)bicyclo[2.2.2]octane-1-carboxylic acid] | ≤ 10 nM
CCC1(C(=O)O)CCC(N2CCc3c(nc(C(=O)Nc4cccc(-c5cccc(NC(=O)c6nc7c(n6C)CCN(C)C7)c5Cl)c4Cl)n3C)C2)CC1 (stereo not shown) [Example 83, 4-(2-((2,2′-dichloro-3′-(1,5-dimethyl-4,5,6,7-tetrahydro-1H-imidazo[4,5-c]pyridine-2-carboxamido)-[1,1′-biphenyl]-3-yl)carbamoyl)-1-methyl-1,4,6,7-tetrahydro-5H-imidazo[4,5-c]pyridin-5-yl)-1-ethylcyclohexane-1-carboxylic acid] | ≤ 10 nM
Cn1c(C(=O)Nc2cccc(-c3cccc(NC(=O)c4nc5c(n4C)CCN(CC[C@H]4CC[C@H](C(=O)O)CC4)C5)c3Cl)c2Cl)nc2c1CCNC2 [Example 85, trans-4-(2-(2-((2,2′-dichloro-3′-(1-methyl-4,5,6,7-tetrahydro-1H-imidazo[4,5-c]pyridine-2-carboxamido)-[1,1′-biphenyl]-3-yl)carbamoyl)-1-methyl-1,4,6,7-tetrahydro-5H-imidazo[4,5-c]pyridin-5-yl)ethyl)cyclohexane-1-carboxylic acid] | ≤ 10 nM

Further lines, results first:

IC50 | Structure (SMILES)
≤ 10 nM | Cn1c(C(=O)Nc2cccc(-c3cccc(NC(=O)c4nc5c(n4C)CCN(C[C@H]4CC[C@@H](C(=O)O)CC4)C5)c3Cl)c2Cl)nc2c1CCN(CCO)C2 [Example 74, cis-4-((2-((2,2′-dichloro-3′-(5-(2-hydroxyethyl)-1-methyl-4,5,6,7-tetrahydro-1H-imidazo[4,5-c]pyridine-2-carboxamido)-[1,1′-biphenyl]-3-yl)carbamoyl)-1-methyl-1,4,6,7-tetrahydro-5H-imidazo[4,5-c]pyridin-5-yl)methyl)cyclohexane-1-carboxylic acid]
≤ 10 nM | CN1CCc2c(nc(C(=O)Nc3cccc(-c4cccc(NC(=O)c5nc6c(n5C)CCN(C5CCC(C(=O)O)CC5)C6)c4Cl)c3Cl)n2C)C1 (stereo not shown) [Example 79, 4-(2-((2,2′-dichloro-3′-(1,5-dimethyl-4,5,6,7-tetrahydro-1H-imidazo[4,5-c]pyridine-2-carboxamido)-[1,1′-biphenyl]-3-yl)carbamoyl)-1-methyl-1,4,6,7-tetrahydro-5H-imidazo[4,5-c]pyridin-5-yl)cyclohexane-1-carboxylic acid]
≤ 10 nM | CN1CCc2c(nc(C(=O)Nc3cccc(-c4cccc(NC(=O)c5nc6c(n5C)CCN(CC57CCC(C(=O)O)(CC5)C7)C6)c4Cl)c3Cl)n2C)C1 [Example 84, 4-((2-((2,2′-dichloro-3′-(1,5-dimethyl-4,5,6,7-tetrahydro-1H-imidazo[4,5-c]pyridine-2-carboxamido)-[1,1′-biphenyl]-3-yl)carbamoyl)-1-methyl-1,4,6,7-tetrahydro-5H-imidazo[4,5-c]pyridin-5-yl)methyl)bicyclo[2.2.1]heptane-1-carboxylic acid]
≤ 10 nM | CCN1CCc2c(nc(C(=O)Nc3cccc(-c4cccc(NC(=O)c5nc6c(n5C)CCN(CC[C@H]5CC[C@H](C(=O)O)CC5)C6)c4Cl)c3Cl)n2C)C1 [Example 86, trans-4-(2-(2-((2,2′-dichloro-3′-(5-ethyl-1-methyl-4,5,6,7-tetrahydro-1H-imidazo[4,5-c]pyridine-2-carboxamido)-[1,1′-biphenyl]-3-yl)carbamoyl)-1-methyl-1,4,6,7-tetrahydro-5H-imidazo[4,5-c]pyridin-5-yl)ethyl)cyclohexane-1-carboxylic acid]

Reference: patent US10806785B2, “Immunomodulator compounds and methods of use” (Incyte Corporation, priority 2016, dated 2020)
